{"source": "ChEMBL document CHEMBL5678810", "key": {"[1]": {"molecular_target": "Tyrosine-protein kinase Fyn (Homo sapiens) (UniProt P06241)", "assay": "Inhibition of T7 bacteriophage fused human FYN at 10 uM by KINOMEscan analysis relative to control"}, "[2]": {"tested_on": "Receptor-type tyrosine-protein kinase FLT3 (Homo sapiens), P36888 [UNDEFINED MUTATION]", "assay": "Inhibition of T7 bacteriophage fused human FLT3 ITD mutant at 10 uM by KINOMEscan analysis relative to control"}, "[3]": {"molecular_target": "Serine/threonine-protein kinase Nek6 (Homo sapiens) (UniProt Q9HC98)", "assay": "Inhibition of T7 bacteriophage fused human NEK6 at 10 uM by KINOMEscan analysis relative to control"}, "[4]": {"molecular_target": "Serine/threonine-protein kinase 36 (Homo sapiens) (UniProt Q9NRP7)", "sequence (Q9NRP7 whole entry, the tested form may be a part)": "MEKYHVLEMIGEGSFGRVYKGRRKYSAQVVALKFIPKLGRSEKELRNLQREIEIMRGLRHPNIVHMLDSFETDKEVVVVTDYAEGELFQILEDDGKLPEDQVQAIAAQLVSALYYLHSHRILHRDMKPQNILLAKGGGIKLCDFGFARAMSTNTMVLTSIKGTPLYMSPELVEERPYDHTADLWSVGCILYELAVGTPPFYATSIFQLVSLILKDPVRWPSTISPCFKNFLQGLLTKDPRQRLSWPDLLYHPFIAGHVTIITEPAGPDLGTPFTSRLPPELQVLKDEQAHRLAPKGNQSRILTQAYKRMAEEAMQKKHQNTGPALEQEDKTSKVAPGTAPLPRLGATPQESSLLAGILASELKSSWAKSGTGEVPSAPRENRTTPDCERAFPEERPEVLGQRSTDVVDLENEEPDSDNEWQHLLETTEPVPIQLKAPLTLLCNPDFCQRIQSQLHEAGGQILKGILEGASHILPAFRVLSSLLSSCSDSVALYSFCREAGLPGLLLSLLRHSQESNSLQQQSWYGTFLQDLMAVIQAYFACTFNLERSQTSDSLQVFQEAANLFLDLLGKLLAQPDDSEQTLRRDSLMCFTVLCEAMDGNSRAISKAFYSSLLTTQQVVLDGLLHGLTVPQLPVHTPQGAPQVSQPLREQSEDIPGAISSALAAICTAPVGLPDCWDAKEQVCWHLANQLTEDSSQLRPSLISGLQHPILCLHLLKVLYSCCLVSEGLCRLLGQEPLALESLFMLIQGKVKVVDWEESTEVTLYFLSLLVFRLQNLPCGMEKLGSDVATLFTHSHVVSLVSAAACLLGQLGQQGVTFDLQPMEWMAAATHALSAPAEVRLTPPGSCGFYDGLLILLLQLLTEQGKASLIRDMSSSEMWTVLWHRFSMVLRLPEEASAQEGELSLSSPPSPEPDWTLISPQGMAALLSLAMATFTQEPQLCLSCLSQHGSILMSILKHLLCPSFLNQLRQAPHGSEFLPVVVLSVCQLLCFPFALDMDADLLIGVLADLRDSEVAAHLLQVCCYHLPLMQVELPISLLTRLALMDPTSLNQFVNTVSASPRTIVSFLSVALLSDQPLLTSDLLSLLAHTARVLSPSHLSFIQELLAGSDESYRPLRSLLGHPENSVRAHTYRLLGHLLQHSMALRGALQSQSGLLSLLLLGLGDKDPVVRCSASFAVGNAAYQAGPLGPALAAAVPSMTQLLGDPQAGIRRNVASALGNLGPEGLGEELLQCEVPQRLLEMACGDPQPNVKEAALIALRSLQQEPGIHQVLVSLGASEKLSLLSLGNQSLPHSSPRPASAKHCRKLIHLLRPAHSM", "assay": "Inhibition of T7 bacteriophage fused human STK36 at 10 uM by KINOMEscan analysis relative to control"}, "[5]": {"molecular_target": "RAF proto-oncogene serine/threonine-protein kinase (Homo sapiens) (UniProt P04049)", "assay": "Inhibition of T7 bacteriophage fused human RAF1 at 10 uM by KINOMEscan analysis relative to control"}, "[6]": {"tested_on": "Phosphatidylinositol 4,5-bisphosphate 3-kinase catalytic subunit alpha isoform (Homo sapiens), P42336 [M1043I]", "sequence (P42336 whole entry M1043I, the tested form may be a part, canonical isoform)": "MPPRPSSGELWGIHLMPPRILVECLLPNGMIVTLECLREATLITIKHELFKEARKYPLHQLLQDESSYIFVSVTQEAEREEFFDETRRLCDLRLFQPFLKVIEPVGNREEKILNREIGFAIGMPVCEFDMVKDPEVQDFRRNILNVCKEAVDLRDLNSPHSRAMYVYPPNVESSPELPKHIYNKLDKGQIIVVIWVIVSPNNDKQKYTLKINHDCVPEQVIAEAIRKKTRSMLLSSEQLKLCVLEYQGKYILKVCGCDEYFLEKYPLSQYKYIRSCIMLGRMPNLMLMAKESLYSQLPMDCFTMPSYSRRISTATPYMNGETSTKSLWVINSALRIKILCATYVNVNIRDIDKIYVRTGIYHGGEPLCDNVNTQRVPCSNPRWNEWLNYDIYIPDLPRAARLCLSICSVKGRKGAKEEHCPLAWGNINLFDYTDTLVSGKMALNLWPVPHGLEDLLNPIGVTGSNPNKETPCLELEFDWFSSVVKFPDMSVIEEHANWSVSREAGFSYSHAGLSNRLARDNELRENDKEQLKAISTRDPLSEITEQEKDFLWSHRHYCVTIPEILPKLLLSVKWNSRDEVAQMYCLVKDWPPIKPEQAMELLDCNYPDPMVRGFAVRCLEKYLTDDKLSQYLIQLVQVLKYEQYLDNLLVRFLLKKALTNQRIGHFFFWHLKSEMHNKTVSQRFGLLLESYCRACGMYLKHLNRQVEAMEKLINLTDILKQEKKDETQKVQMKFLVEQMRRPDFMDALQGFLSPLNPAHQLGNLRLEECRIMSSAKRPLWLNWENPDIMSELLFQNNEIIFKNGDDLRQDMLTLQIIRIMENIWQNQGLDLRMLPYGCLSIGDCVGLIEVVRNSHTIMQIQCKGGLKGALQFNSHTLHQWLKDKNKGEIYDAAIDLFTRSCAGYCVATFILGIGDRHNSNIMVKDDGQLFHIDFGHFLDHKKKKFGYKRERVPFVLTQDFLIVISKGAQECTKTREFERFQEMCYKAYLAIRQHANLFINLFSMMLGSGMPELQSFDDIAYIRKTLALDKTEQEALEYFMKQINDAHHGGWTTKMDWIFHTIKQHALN", "assay": "Inhibition of T7 bacteriophage fused human PIK3CA M1043I mutant at 10 uM by KINOMEscan analysis relative to control"}, "[7]": {"molecular_target": "Serine/threonine-protein kinase pim-2 (Homo sapiens) (UniProt Q9P1W9)", "sequence (Q9P1W9 whole entry, looked up, the tested form may be a part)": "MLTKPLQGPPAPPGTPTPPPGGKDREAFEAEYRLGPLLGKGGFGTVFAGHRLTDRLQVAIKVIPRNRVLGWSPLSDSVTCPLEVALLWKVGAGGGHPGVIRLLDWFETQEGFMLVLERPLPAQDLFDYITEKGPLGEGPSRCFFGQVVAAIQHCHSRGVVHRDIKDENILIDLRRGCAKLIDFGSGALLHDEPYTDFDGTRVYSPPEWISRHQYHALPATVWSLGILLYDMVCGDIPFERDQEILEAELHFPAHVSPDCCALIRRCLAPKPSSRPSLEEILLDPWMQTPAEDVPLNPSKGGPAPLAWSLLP", "assay": "Inhibition of T7 bacteriophage fused human PIM2 at 10 uM by KINOMEscan analysis relative to control"}, "[8]": {"molecular_target": "Mast/stem cell growth factor receptor Kit (Homo sapiens) (UniProt P10721)", "assay": "Inhibition of T7 bacteriophage fused human KIT at 10 uM by KINOMEscan analysis relative to control"}, "[9]": {"molecular_target": "Serine/threonine-protein kinase PAK 4 (Homo sapiens) (UniProt O96013)", "assay": "Inhibition of T7 bacteriophage fused human PAK4 at 10 uM by KINOMEscan analysis relative to control"}, "[10]": {"molecular_target": "Cyclin-dependent kinase 15 (Homo sapiens) (UniProt Q96Q40)", "assay": "Inhibition of T7 bacteriophage fused human PFTAIRE2 at 10 uM by KINOMEscan analysis relative to control"}, "[11]": {"molecular_target": "Mitogen-activated protein kinase kinase kinase 4 (Homo sapiens) (UniProt Q9Y6R4)", "assay": "Inhibition of T7 bacteriophage fused human MAP3K4 at 10 uM by KINOMEscan analysis relative to control"}, "[12]": {"tested_on": "Serine/threonine-protein kinase B-raf (Homo sapiens), P15056 [V600E]", "assay": "Inhibition of T7 bacteriophage fused human BRAF V600E mutant at 10 uM by KINOMEscan analysis relative to control"}, "[13]": {"molecular_target": "Platelet-derived growth factor receptor beta (Homo sapiens) (UniProt P09619)", "assay": "Inhibition of T7 bacteriophage fused human PDGFRB at 10 uM by KINOMEscan analysis relative to control"}, "[14]": {"molecular_target": "Insulin receptor-related protein (Homo sapiens) (UniProt P14616)", "sequence (P14616 27-742 limits assumed)": "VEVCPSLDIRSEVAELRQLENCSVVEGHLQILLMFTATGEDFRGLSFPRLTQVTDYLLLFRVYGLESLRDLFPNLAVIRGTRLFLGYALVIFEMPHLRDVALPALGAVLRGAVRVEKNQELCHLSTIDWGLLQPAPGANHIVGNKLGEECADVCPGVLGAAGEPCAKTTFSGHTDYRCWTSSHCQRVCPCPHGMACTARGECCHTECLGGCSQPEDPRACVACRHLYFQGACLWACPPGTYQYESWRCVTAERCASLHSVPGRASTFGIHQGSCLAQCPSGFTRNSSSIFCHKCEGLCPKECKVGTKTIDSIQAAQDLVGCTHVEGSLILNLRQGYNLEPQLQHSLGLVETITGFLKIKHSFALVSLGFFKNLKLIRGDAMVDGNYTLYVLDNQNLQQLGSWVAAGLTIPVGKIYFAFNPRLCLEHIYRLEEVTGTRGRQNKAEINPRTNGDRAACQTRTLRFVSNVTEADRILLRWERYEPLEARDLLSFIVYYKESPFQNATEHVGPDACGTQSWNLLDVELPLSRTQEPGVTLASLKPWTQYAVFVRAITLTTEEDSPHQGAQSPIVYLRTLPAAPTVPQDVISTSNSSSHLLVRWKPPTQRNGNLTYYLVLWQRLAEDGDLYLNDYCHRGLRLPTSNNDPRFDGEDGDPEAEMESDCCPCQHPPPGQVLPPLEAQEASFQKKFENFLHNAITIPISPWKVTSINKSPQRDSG", "sequence (P14616 747-1297 limits assumed)": "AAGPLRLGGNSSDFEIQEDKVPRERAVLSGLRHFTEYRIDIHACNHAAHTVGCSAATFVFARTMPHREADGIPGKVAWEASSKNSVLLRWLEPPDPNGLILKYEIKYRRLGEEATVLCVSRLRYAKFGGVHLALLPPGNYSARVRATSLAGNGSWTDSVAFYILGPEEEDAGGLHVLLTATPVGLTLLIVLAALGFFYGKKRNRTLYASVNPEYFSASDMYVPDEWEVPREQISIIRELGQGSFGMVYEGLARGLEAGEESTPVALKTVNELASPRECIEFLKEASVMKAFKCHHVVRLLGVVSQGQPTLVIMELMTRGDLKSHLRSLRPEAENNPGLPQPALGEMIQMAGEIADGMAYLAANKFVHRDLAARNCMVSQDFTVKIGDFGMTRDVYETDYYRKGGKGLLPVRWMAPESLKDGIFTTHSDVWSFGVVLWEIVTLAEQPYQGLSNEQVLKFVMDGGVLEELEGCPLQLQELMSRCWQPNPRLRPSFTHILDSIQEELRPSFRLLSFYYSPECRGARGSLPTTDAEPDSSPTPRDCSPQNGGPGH", "assay": "Inhibition of T7 bacteriophage fused human INSRR at 10 uM by KINOMEscan analysis relative to control; values are per cent of control"}, "[15]": {"tested_on": "Tyrosine-protein kinase ABL1 (Homo sapiens), P00519 [T315I]", "assay": "Inhibition of T7 bacteriophage fused human phosphorylated ABL1 T315I mutant at 10 uM by KINOMEscan analysis relative to control"}, "[16]": {"molecular_target": "Mitogen-activated protein kinase kinase kinase 10 (Homo sapiens) (UniProt Q02779)", "sequence (Q02779 whole entry, looked up, the tested form may be a part)": "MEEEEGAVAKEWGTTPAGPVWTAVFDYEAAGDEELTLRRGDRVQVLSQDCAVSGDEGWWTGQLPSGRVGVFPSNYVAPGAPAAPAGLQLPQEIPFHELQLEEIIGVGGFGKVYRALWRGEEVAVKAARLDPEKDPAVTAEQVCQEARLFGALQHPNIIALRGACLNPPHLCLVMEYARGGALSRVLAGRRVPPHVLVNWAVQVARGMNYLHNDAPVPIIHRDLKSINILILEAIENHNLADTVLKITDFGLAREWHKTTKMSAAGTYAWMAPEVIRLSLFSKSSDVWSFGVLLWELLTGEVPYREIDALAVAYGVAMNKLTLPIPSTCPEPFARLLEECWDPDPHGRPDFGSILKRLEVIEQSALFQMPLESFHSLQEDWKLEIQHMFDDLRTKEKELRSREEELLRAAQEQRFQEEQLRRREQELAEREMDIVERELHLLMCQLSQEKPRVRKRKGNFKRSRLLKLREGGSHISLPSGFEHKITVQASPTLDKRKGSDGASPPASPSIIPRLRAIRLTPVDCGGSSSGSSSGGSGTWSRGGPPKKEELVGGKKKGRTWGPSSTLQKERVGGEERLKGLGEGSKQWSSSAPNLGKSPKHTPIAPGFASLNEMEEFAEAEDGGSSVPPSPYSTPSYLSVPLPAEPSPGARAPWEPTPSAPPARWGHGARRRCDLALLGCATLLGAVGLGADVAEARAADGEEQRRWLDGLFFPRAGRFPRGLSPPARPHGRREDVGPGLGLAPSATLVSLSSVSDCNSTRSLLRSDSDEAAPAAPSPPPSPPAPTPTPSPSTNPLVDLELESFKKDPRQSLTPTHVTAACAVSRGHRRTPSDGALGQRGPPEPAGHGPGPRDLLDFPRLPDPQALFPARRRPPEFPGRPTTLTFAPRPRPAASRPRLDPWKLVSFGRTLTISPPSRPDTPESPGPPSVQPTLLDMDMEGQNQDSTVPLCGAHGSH", "assay": "Inhibition of T7 bacteriophage fused human MLK2 at 10 uM by KINOMEscan analysis relative to control"}, "[17]": {"molecular_target": "Fibroblast growth factor receptor 1 (Homo sapiens) (UniProt P11362)", "assay": "Inhibition of T7 bacteriophage fused human FGFR1 at 10 uM by KINOMEscan analysis relative to control; values are per cent of control"}, "[18]": {"molecular_target": "Ephrin type-B receptor 3 (Homo sapiens) (UniProt P54753)", "assay": "Inhibition of T7 bacteriophage fused human EPHB3 at 10 uM by KINOMEscan analysis relative to control"}, "[19]": {"molecular_target": "Cyclin-dependent kinase 5 (Homo sapiens) (UniProt Q00535)", "assay": "Inhibition of T7 bacteriophage fused human CDK5 at 10 uM by KINOMEscan analysis relative to control"}, "[20]": {"molecular_target": "Tyrosine-protein kinase JAK2 (Homo sapiens) (UniProt O60674)", "assay": "Inhibition of T7 bacteriophage fused human JAK2 JH1catalytic domain at 10 uM by KINOMEscan analysis relative to control; values are per cent of control"}, "[21]": {"tested_on": "Tyrosine-protein kinase ABL1 (Homo sapiens), P00519 [F317L]", "assay": "Inhibition of T7 bacteriophage fused human nonphosphorylated ABL1 F317L mutant at 10 uM by KINOMEscan analysis relative to control"}, "[22]": {"molecular_target": "Insulin receptor (Homo sapiens) (UniProt P06213)", "assay": "Inhibition of T7 bacteriophage fused human INSR at 10 uM by KINOMEscan analysis relative to control; values are per cent of control"}, "[23]": {"molecular_target": "Serine/threonine-protein kinase Nek4 (Homo sapiens) (UniProt P51957)", "assay": "Inhibition of T7 bacteriophage fused human NEK4 at 10 uM by KINOMEscan analysis relative to control; values are per cent of control"}, "[24]": {"molecular_target": "MAP kinase-activated protein kinase 2 (Homo sapiens) (UniProt P49137)", "assay": "Inhibition of T7 bacteriophage fused human MAPKAPK2 at 10 uM by KINOMEscan analysis relative to control"}, "[25]": {"molecular_target": "Ribosomal protein S6 kinase alpha-2 (Homo sapiens) (UniProt Q15349)", "assay": "Inhibition of T7 bacteriophage fused human C-terminal RSK3 Kinase domain-2 at 10 uM by KINOMEscan analysis relative to control"}, "[26]": {"tested_on": "Tyrosine-protein kinase ABL1 (Homo sapiens), P00519 [Y253F]", "assay": "Inhibition of T7 bacteriophage fused human phosphorylated ABL1 Y253F mutant at 10 uM by KINOMEscan analysis relative to control"}, "[27]": {"molecular_target": "CDK4/Cyclin D3 (Homo sapiens) (UniProt P11802+P30281)", "assay": "Inhibition of T7 bacteriophage fused human CDK4-cyclinD3 at 10 uM by KINOMEscan analysis relative to control", "format": "protein-complex assay"}, "[28]": {"tested_on": "Tyrosine-protein kinase ABL1 (Homo sapiens), P00519 [F317I]", "assay": "Inhibition of T7 bacteriophage fused human phosphorylated ABL1 F317I mutant at 10 uM by KINOMEscan analysis relative to control"}, "[29]": {"molecular_target": "Cyclin-dependent kinase-like 2 (Homo sapiens) (UniProt Q92772)", "assay": "Inhibition of T7 bacteriophage fused human CDKL2 at 10 uM by KINOMEscan analysis relative to control"}, "[30]": {"molecular_target": "Serine/threonine-protein kinase Chk2 (Homo sapiens) (UniProt O96017)", "assay": "Inhibition of CHK2 Lys2 labeling site in human PC-3 cell lysate at 10 uM by KiNativ profiling analysis relative to control", "format": "subcellular"}}, "data": [{"smiles": "COc1cc(N2CCC(N3CCN(C)CC3)CC2)ccc1Nc1ncc2c(n1)N(C)c1ccccc1C(=O)N2C", "values": [{"measurement": "inhibition", "setting": "[1]", "result": 100, "unit": "%"}, {"measurement": "inhibition", "setting": "[2]", "result": 100, "unit": "%"}, {"measurement": "inhibition", "setting": "[3]", "result": 76, "unit": "%"}, {"measurement": "inhibition", "setting": "[4]", "result": 97, "unit": "%"}, {"measurement": "inhibition", "setting": "[5]", "result": 100, "unit": "%"}, {"measurement": "inhibition", "setting": "[6]", "result": 65, "unit": "%"}, {"measurement": "inhibition", "setting": "[7]", "result": 100, "unit": "%"}, {"measurement": "inhibition", "setting": "[8]", "result": 100, "unit": "%"}, {"measurement": "inhibition", "setting": "[9]", "result": 94, "unit": "%"}, {"measurement": "inhibition", "setting": "[10]", "result": 100, "unit": "%"}, {"measurement": "inhibition", "setting": "[11]", "result": 100, "unit": "%"}, {"measurement": "inhibition", "setting": "[12]", "result": 100, "unit": "%"}, {"measurement": "inhibition", "setting": "[13]", "result": 100, "unit": "%"}, {"measurement": "residual activity", "setting": "[14]", "result": 97, "unit": "%"}, {"measurement": "inhibition", "setting": "[15]", "result": 58, "unit": "%"}, {"measurement": "inhibition", "setting": "[16]", "result": 100, "unit": "%"}, {"measurement": "residual activity", "setting": "[17]", "result": 86, "unit": "%"}, {"measurement": "inhibition", "setting": "[18]", "result": 100, "unit": "%"}, {"measurement": "inhibition", "setting": "[19]", "result": 81, "unit": "%"}, {"measurement": "residual activity", "setting": "[20]", "result": 70, "unit": "%"}, {"measurement": "inhibition", "setting": "[21]", "result": 14, "unit": "%"}, {"measurement": "residual activity", "setting": "[22]", "result": 84, "unit": "%"}, {"measurement": "residual activity", "setting": "[23]", "result": 95, "unit": "%"}, {"measurement": "inhibition", "setting": "[24]", "result": 100, "unit": "%"}, {"measurement": "inhibition", "setting": "[25]", "result": 7.5, "unit": "%"}, {"measurement": "inhibition", "setting": "[26]", "result": 89, "unit": "%"}, {"measurement": "inhibition", "setting": "[27]", "result": 100, "unit": "%"}, {"measurement": "inhibition", "setting": "[28]", "result": 17, "unit": "%"}, {"measurement": "inhibition", "setting": "[29]", "result": 100, "unit": "%"}]}, {"smiles": "COc1cc(C(=O)N2CCC(N3CCN(C)CC3)CC2)ccc1Nc1ncc2c(n1)N(C1CCCC1)c1ccccc1C(=O)N2C", "values": [{"measurement": "inhibition", "setting": "[30]", "result": 0, "unit": "%"}]}]}
